Patent US8476302B2, “α-ketoamide derivatives useful endothelial lipase inhibitors” (Janssen Pharmaceutica N.V., priority 2010, dated 2013)
pIC50: −log10 of the molar value. “And” between values parts separate entries of the source, which are not always exact repeats. Identical values can stand only once.

Assays:
[1] = biological target: T1, human endothelial lipase (EL) (Homo sapiens, UniProt Q9Y5X9); test: Endothelial Lipase Assay, cell surface lipase activity (human); type: cell-based; details: cells expressing human EL, PLA1 substrate 10 μM, fluorescence reaction rate; several values in a cell are repeat determinations
T1 construct: host or cells: cells expressing human endothelial lipase
T1 sequence (Q9Y5X9 21-500): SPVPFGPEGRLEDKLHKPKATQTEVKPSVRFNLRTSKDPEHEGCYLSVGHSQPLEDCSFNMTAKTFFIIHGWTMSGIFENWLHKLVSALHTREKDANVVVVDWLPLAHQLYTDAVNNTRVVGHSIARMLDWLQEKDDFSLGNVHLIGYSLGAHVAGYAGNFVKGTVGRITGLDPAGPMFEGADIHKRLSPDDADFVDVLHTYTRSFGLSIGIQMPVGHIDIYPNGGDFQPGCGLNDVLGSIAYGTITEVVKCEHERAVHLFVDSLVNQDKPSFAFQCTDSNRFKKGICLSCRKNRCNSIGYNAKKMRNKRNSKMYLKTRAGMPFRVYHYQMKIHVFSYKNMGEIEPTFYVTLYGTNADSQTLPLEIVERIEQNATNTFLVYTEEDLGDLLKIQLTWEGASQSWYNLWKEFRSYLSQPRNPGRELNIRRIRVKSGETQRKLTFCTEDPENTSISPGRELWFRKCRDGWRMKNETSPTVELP
Method: (§1) Endothelial Lipase Assay (Human/Mouse)
(§2) To assay for cell surface lipase activity, cells expressing human endothelial lipase (EL) or LPL were plated in CellBIND® 384-well plates (Corning, Lowell, Mass.) in 25 μL serum free medium at a density of 2000 cells/well. After 18-24 hours incubation at 37° C., the medium was removed and replaced with 15 μL assay buffer [Hank's Buffered Saline Solution with 25 mM HEPES pH 7.2] and 15 μL PLA1 for a final concentration of 10 μM using a Multidrop reagent dispenser. Fluorescence signal was monitored for 30 min at 37° C. on a Safire II plate reader in kinetic mode (60 cycles, kinetic interval: 30 seconds) with an excitation wavelength of 490 nm and an emission wavelength of 515 nm. Linear regression of the fluorescence intensity collected from 480 to 1500 seconds was used to calculate the reaction rate (the slope) and the slopes were used to calculate IC50 values where appropriate. The amount of BODIPY-labeled product generated was calculated at the 30 min time point as determined from standard curve analysis of purified BODIPY FL C5. In all studies using the inhibitor Ebelactone B, consistent results were obtained when it was dissolved as a stock in DMSO, immediately before use.

Mouse EL = biological target: T2, Mouse EL (Mus musculus, UniProt Q9WVG5); test: Endothelial Lipase Assay, cell surface lipase activity (mouse); type: cell-based; details: PLA1 substrate 10 μM, fluorescence reaction rate, several values in a cell are repeat determinations
T2 construct: host or cells: not described for mouse EL
T2 sequence (Q9WVG5 21-500): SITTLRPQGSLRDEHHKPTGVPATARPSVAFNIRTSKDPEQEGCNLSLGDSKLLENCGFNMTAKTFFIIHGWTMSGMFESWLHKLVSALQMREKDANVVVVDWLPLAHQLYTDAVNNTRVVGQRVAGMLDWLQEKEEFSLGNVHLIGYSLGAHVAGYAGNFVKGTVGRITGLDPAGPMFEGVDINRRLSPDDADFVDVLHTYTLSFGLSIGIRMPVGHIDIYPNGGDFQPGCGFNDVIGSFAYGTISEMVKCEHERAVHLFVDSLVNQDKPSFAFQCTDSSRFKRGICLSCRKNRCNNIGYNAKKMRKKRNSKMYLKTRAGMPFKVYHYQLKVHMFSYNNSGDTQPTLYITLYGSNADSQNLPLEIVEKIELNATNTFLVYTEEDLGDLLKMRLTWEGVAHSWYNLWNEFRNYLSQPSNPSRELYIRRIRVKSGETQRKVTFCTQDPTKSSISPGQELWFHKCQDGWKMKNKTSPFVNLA
Method: as §1, §2

pIC50 [1] | pIC50 (Mouse EL) | SMILES
6.02 and 6.08 and 6.16 | 5.98 and 6.06 and 6.15 | O=C(CCCCCCc1ccccc1)C(=O)NCc1nnc(-c2ccccc2)o1 [Compound 1, 2-oxo-8-phenyl-N-((5-phenyl-1,3,4-oxadiazol-2-yl)methyl)octanamide]
6.31 | 6.21 | O=C(CCCCCCc1ccccc1)C(=O)NCc1nnc(-c2ccc(Cl)cc2)o1 [Compound 2]
5.96 |  | COc1cccc(-c2nnc(CNC(=O)C(=O)CCCCCCc3ccccc3)o2)c1 [Compound 3]
6.19 |  | COc1ccc(-c2nnc(CNC(=O)C(=O)CCCCCCc3ccccc3)o2)cc1 [Compound 4]
6.18 |  | O=C(CCCCCCc1ccccc1)C(=O)NCc1nnc(-c2ccccc2Cl)o1 [Compound 5]
5.58 |  | COc1ccccc1-c1nnc(CNC(=O)C(=O)CCCCCCc2ccccc2)o1 [Compound 6]
6.34 |  | O=C(CCCCCCc1ccccc1)C(=O)NCc1nnc(-c2ccc3c(c2)OCO3)o1 [Compound 7]
4.98 |  | O=C(CCCCCCc1ccccc1)C(=O)NCc1nnc(-c2ccccc2)[nH]1 [Compound 11]
5.68 | 5.76 | O=C(CCCCCCc1ccccc1)C(=O)NCc1nnc(-c2ccccc2F)o1 [Compound 12]
6.13 | 5.99 | O=C(CCCCCCc1ccccc1)C(=O)NCc1nnc(-c2ccc(F)cc2)o1 [Compound 15]
5.47 | 5.73 | O=C(CCCCCCc1ccccc1)C(=O)NCc1nnc(-c2ccc(-c3ccccc3)cc2)o1 [Compound 17]
6.36 | 6.46 | O=C(CCCCCCc1ccccc1)C(=O)NCc1nnc(-c2cccc(Cl)c2)o1 [Compound 18]
5.27 | 5.52 | O=C(CCCCCCc1ccccc1)C(=O)NCc1nnc(-c2ccc3c(=O)n4c(nc3c2)CCC4)o1 [Compound 19]
6.31 | 6.26 | O=C(CCCCCCc1ccccc1)C(=O)NCc1nnc(-c2ccc(F)c(F)c2)o1 [Compound 20]
6.16 | 6.18 | O=C(CCCCCCc1ccccc1)C(=O)NCc1nnc(-c2cccc(C(F)(F)F)c2)o1 [Compound 21]
6.57 and 6.26 | 6.36 and 6.40 | O=C(CCCCCCc1ccccc1)C(=O)NCc1nnc(-c2ccc(C(F)(F)F)cc2)o1 [Compound 22]
4.78 | 4.68 | CN(C)c1ccc(-c2nnc(CNC(=O)C(=O)CCCCCCc3ccccc3)o2)cc1 [Compound 24]
6.45 and 6.50 and 6.33 | 6.48 and 6.63 and 6.57 | Cc1ccc(-c2nnc(CNC(=O)C(=O)CCCCCCc3ccccc3)o2)cc1 [Compound 25]
6.18 | 6.36 | O=C(CCCCCCc1ccccc1)C(=O)NCc1nnc(-c2cc(F)cc(F)c2)o1 [Compound 26]
6.53 and 6.89 | 6.65 and 6.74 | O=C(CCCCCCc1ccccc1)C(=O)NCc1nnc(-c2ccc3ccccc3c2)o1 [Compound 27]
6.65 | 6.90 | O=C(CCCCCCc1cccc(F)c1)C(=O)NCc1nnc(-c2ccc3ccccc3c2)o1 [Compound 28]
6.28 | 6.69 | O=C(CCCCCCc1ccc(F)cc1)C(=O)NCc1nnc(-c2ccc3ccccc3c2)o1 [Compound 30]
6.85 | 6.92 | COc1cccc(CCCCCCC(=O)C(=O)NCc2nnc(-c3ccc4ccccc4c3)o2)c1 [Compound 31]
6.67 | 6.78 | COc1cccc(CCCCCCC(=O)C(=O)NCc2nnc(-c3ccc(C)cc3)o2)c1 [Compound 32]
5.43 | 5.47 | O=C(CCCCCc1ccccc1)C(=O)NCc1nnc(-c2ccccc2)o1 [Compound 33]
6.04 | 6.33 | O=C(CCCCCc1ccccc1)C(=O)NCc1nnc(-c2ccc3ccccc3c2)o1 [Compound 34]
5.95 | 6.00 | Cc1ccc(-c2nnc(CNC(=O)C(=O)CCCCCc3ccccc3)o2)cc1 [Compound 35]

pIC50 [1] | pIC50 (Mouse EL) | SMILES
4.99 | 5.18 | O=C(CCCCCc1ccc(-c2ccccc2)cc1)C(=O)NCc1nnc(-c2ccc3ccccc3c2)o1 [Compound 36]
5.60 | 5.83 | Cc1ccc(-c2nnc(CNC(=O)C(=O)CCCCCc3ccc(-c4ccccc4)cc3)o2)cc1 [Compound 37]
6.21 | 6.32 | O=C(CCCCCc1ccc(F)cc1)C(=O)NCc1nnc(-c2ccc3ccccc3c2)o1 [Compound 38]
6.19 | 6.11 | Cc1ccc(-c2nnc(CNC(=O)C(=O)CCCCCc3ccc(F)cc3)o2)cc1 [Compound 39]
4.48 | 4.48 | COc1cccc(C#CCCCC(=O)C(=O)NCc2nnc(-c3ccccc3)o2)c1 [Compound 40]
4.57 | 4.62 | COc1ccc(C#CCCCC(=O)C(=O)NCc2nnc(-c3ccccc3)o2)cc1 [Compound 41]
5.33 | 5.56 | O=C(CCCCCCc1ccncc1)C(=O)NCc1nnc(-c2ccccc2)o1 [Compound 42]
5.62 | 5.58 | O=C(CCCCC#Cc1ccccc1)C(=O)NCc1nnc(-c2ccccc2)o1 [Compound 43]
6.02 | 6.19 | N#Cc1ccc(CCCCCCC(=O)C(=O)NCc2nnc(-c3ccccc3)o2)cc1 [Compound 44]
5.46 | 5.62 | N#Cc1ccc(C#CCCCCC(=O)C(=O)NCc2nnc(-c3ccccc3)o2)cc1 [Compound 45]
5.06 | 5.19 | O=C(CCCCCOc1ccccc1)C(=O)NCc1nnc(-c2ccccc2)o1 [Compound 46]
5.50 | 5.52 | Cc1ccc(-c2nnc(CNC(=O)C(=O)CCCCCOc3ccccc3)o2)cc1 [Compound 47]
5.71 | 5.77 | O=C(CCCCCOc1ccccc1)C(=O)NCc1nnc(-c2ccc3ccccc3c2)o1 [Compound 48]
6.25 | 6.51 | O=C(CCCCCCc1cccc(OC(F)(F)F)c1)C(=O)NCc1nnc(-c2ccccc2)o1 [Compound 49]
6.25 | 6.57 | O=C(CCCCCCc1ccc2nc(Cl)ccc2c1)C(=O)NCc1nnc(-c2ccccc2)o1 [Compound 50]
6.22 | 6.10 | O=C(CCCCCCc1ccccc1F)C(=O)NCc1nnc(-c2ccccc2)o1 [Compound 51]
5.58 | 5.75 | O=C(CCCCCOc1ccccc1)C(=O)NCc1nnc(-c2ccc(Oc3ccccc3)cc2)o1 [Compound 52]
5.32 | 5.23 | O=C(CCCCCOc1cccc(F)c1)C(=O)NCc1nnc(-c2ccccc2)o1 [Compound 53]
6.04 | 6.10 | O=C(CCCCCOc1cccc(F)c1)C(=O)NCc1nnc(-c2ccc3ccccc3c2)o1 [Compound 54]
6.47 | 6.42 | O=C(CCCCCOc1cccc(F)c1)C(=O)NCc1nnc(-c2ccc(Oc3ccccc3)cc2)o1 [Compound 55]
5.49 | 5.64 | O=C(CCCCCOc1cccc(F)c1)C(=O)NCc1nnc(-c2cccc(Oc3ccccc3)c2)o1 [Compound 56]
5.42 | 5.96 | O=C(CCCCCOc1cccc(F)c1)C(=O)NCc1nnc(-c2ccc(Oc3ccc(Cl)cc3)cc2)o1 [Compound 57]
5.31 | 5.76 | O=C(CCCCCCc1ccccc1)C(=O)NCc1nnc(-c2cccc(Oc3ccccc3)c2)o1 [Compound 58]
5.59 | 5.95 | O=C(CCCCCCc1ccccc1)C(=O)NCc1nnc(-c2ccc(Oc3ccc(Cl)cc3)cc2)o1 [Compound 59]
4.48 |  | O=C(CCCCCNc1cccc(F)n1)C(=O)NCc1nnc(-c2ccccc2)o1 [Compound 171]
5.28 |  | O=C(CCCCCCc1ccccc1)C(=O)NCc1nnc(-c2cccnc2)o1 [Compound 177]
